Measured values taken from US20210214376A1, “HALOGENATED BIOTIN-MODIFIED DIMER AND USE THEREOF” (The University of Tokyo, priority 2018, published 2021).

Assays:
CEA-V2122 [1] = target: T1, CEA-V2122 (Streptomyces avidinii, UniProt P22629, E125D/E140N/N47D/N73G/R108K/R127K/S51D/S69N/Y107S/Y46S); assay: Analysis of affinity of CEA-V2122 for Psyche B-iodine and Psyche P-iodine (Biacore T200, Single-Cycle Kinetics); format: binding; conditions: for kon: read-out: Ka
T1 construct: At the C-terminus a 6xHis tag; The expressed gene carries a pelB signal
Description: (§1) The data regarding the affinity of CEA-V2122 for Psyche B-iodine and for Psyche P-iodine were obtained in accordance with the description of Japanese Patent Application 2018-247363. Briefly stating, using an amine coupling kit (GE Healthcare Life Sciences), Sensor Chip CM5 (GE Healthcare Life Science) was set to be a target value that was 5000 RU, and the purified CEA-V2122 was immobilized. With regard to the concentration of the analyte, 5 types of two-fold serial dilutions from 1E-08 M to 6.25E-10 M were used. Biacore T200 (GE Healthcare Life Sciences) was used, the measurement temperature was set to be 25° C., and kinetics data were then obtained according to Single-Cycle Kinetics analysis. Using Biacore T200 Evaluation Software, version 2.0 (GE Healthcare Life Sciences), the obtained data were subjected to curve fitting in a Bivalent Analyze mode, and the evaluation value of each parameter was obtained. The dissociation constant KD is obtained according to Kd/Ka=KD.

CEA-V2122 [2] = target: T2, CEA-V2122 (Streptomyces avidinii, UniProt P22629, Y46S/N47D/S51D/S69N/N73G/Y107S/R108K/E125D/R127K/E140N); assay: as above; format: binding; conditions: for bond with CEA-V2122: conclusion from Table 1; for koff: immobilized CEA-V2122, 25° C., Bivalent Analyze mode curve fitting
T2 construct: At the C-terminus a 6xHis tag; The expressed gene carries a pelB signal
Description: as §1

Herceptin-V2122 = assay: Binding assay of astatine-labeled Psyche B and Herceptin-Cupid using Ni-NTA magnetic beads; conditions: Herceptin-V2122 solution versus PBS control; 5.8 kBq; FIG. 5
Procedure: In order to confirm whether or not astatine-labeled Psyche B has binding ability to Cupid, a binding assay was carried out using Herceptin-Cupid and Ni-NTA magnetic beads (manufactured by Thermo) that bind to a 6×His-tag added to Herceptin-Cupid. Psyche B-At211 used herein was prepared according to Example 1(4), whereas Herceptin-Cupid was prepared according to the method described in Japanese Patent Application 2018-247363, as described above. The specific assay method is as follows.
That is, 4 μL of Herceptin-V2122 solution or PBS used as a control was dispensed into a 1.5-mL tube. Into the tube, 10 μL (corresponding to 5.8 kBq) of Psyche-At211 was added, and the obtained mixture was then incubated at room temperature for 5 minutes. Subsequently, 10 μL of Ni-NTA magnetic beads equilibrated with PBS were added to the reaction mixture, and the thus obtained mixture was then incubated at room temperature for 5 minutes. Thereafter, the beads were precipitated and immobilized by using a magnet, and a supernatant was then recovered. The supernatant was washed with 100 μL of PBS twice, and the radiation dose was then counted using a gamma counter. The results are shown in the graph of FIG. 5.

[3] = test system: HER2-positive SKOV3 cells; assay: Binding of astatine-labeled Psyche B to Herceptin-V2122 pre-bound to SKOV3 cells; format: cell-based; conditions: 10 kBq/tube; Herceptin-V2122 versus negative control CEA-V2122; FIG. 6
Procedure: (§2) Whether or not astatine-labeled Psyche B has binding ability to Herceptin-V2122, which had previously been bound to HER2-positive SKOV3 cells, was confirmed. As a negative control, CEA-V2122 was used. Psyche B-At211 used herein was prepared according to Example 1(4), whereas Herceptin-V2122 and CEA-V2122 were prepared according to the method described in Japanese Patent Application 2018-247363, as described above. The specific assay method is as follows.
(§3) Four 1.5-mL tubes were prepared, and the cells were then dispersed into each tube to a cell density of 0.875×10^6 cells/tube. Herceptin-V2122 was added to two tubes to result in N=2, whereas CEA-V2122 was added to the remaining two tubes. Subsequently, incubation was carried out on ice for 1 hour, and astatine-labeled Psyche B was then added to the resultant to 10 kBq/tube. Thereafter, the obtained mixture was incubated at room temperature for 30 minutes, while shaking. Finally, the cells were precipitated by centrifugation, and a supernatant was then recovered. The supernatant was washed with PBS twice, and the radiation dose was then counted using a gamma counter. The results are shown in the graph of FIG. 6.

[4] = target: T3, HER2 (ERBB2) on HER2-positive SKOV3 ovarian cancer cells (UniProt P04626 23-1255, limits assumed); assay: astatine-211-labeled Psyche B counted by gamma counter on SKOV3 cells pre-incubated with the fusion protein; CEA-V2122 as negative control
T3 construct: whole, on cells
Procedure: as §2
as §3, with “0.875×10⁶” for “0.875×10^6”, “6. The measurement results were Herceptin-V2122-dependent, and it was confirmed that Psyche B-At212 bound to the SKOV3 cells via Herceptin-V2122.” for “6.”

T2 sequence (P22629 whole entry Y46S/N47D/S51D/S69N/N73G/Y107S/R108K/E125D/R127K/E140N, looked up): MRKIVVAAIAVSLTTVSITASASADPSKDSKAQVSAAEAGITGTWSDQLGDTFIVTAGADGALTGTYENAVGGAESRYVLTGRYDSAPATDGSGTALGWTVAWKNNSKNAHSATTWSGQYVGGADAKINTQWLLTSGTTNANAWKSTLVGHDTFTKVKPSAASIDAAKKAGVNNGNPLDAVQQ
T1 sequence (P22629 whole entry E125D/E140N/N47D/N73G/R108K/R127K/S51D/S69N/Y107S/Y46S, looked up): as the sequence (P22629 whole entry Y46S/N47D/S51D/S69N/N73G/Y107S/R108K/E125D/R127K/E140N, looked up) above

binding result [4] | Molecule | Kd (CEA-V2122 [1]) | kon (CEA-V2122 [1]) | bond with CEA-V2122 (CEA-V2122 [2]) | koff (CEA-V2122 [2]) | precipitation with Ni-NTA magnetic beads, radiation dose by gamma counter (Herceptin-V2122) | binding to SKOV3 cells, radiation dose by gamma counter [3]
 | N=C1N[C@H]2[C@H](CS[C@H]2CCCCC(=O)NCCCCCC(=O)Nc2cc(NC(=O)CCCCCNC(=O)CCCC[C@@H]3SC[C@@H]4NC(=N)N[C@@H]43)cc(C(=O)NCCOCCOCCNC(=O)c3cccc(I)c3)c2)N1 [Psyche B-iodine, (3aS,3a′S,4S,4′S,6aR,6a′R)-4,4′-(((((5-((2-(2-(2-(3-Iodobenzamido)ethoxy)ethoxy)ethyl)carbamoyl)-1,3-phenylene)bis(azanediyl))bis(6-oxohexane-6,1-diyl))bis(azanediyl))bis(5-oxopentane-5,1-diyl))bis(tetrahydro-1H-thieno[3,4-d]imidazol-2(3H)-iminium) 2,2,2-trifluoroacetate] | 0.022 nM | 29000 M⁻¹ s⁻¹ | form a stable bond with CEA-V2122 | 6.4e-07 s⁻¹ |  | 
 | N=C1N[C@H]2[C@H](CS[C@H]2CCCCC(=O)NCCCCCC(=O)Nc2cc(NC(=O)CCCCCNC(=O)CCCC[C@@H]3SC[C@@H]4NC(=N)N[C@@H]43)cc(C(=O)NCCOCCOCCNC(=O)c3cccc([211At])c3)c2)N1.O=C(O)C(F)(F)F.O=C(O)C(F)(F)F [Psyche B-At211, (3aS,3a′S,4S,4′S,6aR,6a′R)-4,4′-(((((5-((2-(2-(2-(3-(Astato-^211At)benzamido)ethoxy)ethoxy)ethyl)carbamoyl)-1,3-phenylene)bis(azanediyl))bis(6-oxohexane-6,1-diyl))bis(azanediyl))bis(5-oxopentane-5,1-diyl))bis(tetrahydro-1H-thieno[3,4-d]imidazol-2(3H)-iminium) 2,2,2-trifluoroacetate] |  |  |  |  | precipitated in a Herceptin-V2122 presence-dependent manner | bound to the SKOV3 cells via Herceptin-V2122
 | N=C1N[C@H]2[C@H](CS[C@H]2CCCCCOCCCCNC(=O)CN(CCOCCOCCNC(=O)c2cccc(I)c2)CC(=O)NCCCCOCCCCC[C@@H]2SC[C@@H]3NC(=N)N[C@@H]32)N1 [Psyche P-iodine, 2,2′-((2-(2-(2-(3-Iodobenzamido)ethoxy)ethoxy)ethyl)azanediyl)bis(N-(4-((5-((3aS,4S,6aR)-2-iminohexahydro-1H-thieno[3,4-d]imidazol-4-yl)pentyl)oxy)butyl)acetamide) 2,2,2-trifluoroacetate] | 4.5 nM | 6800 M⁻¹ s⁻¹ | form a stable bond with CEA-V2122 | 3.1e-05 s⁻¹ |  | 
no binding | CEA-V2122 (scFv, Fusion of an anti-CEACAM5 scFv and mutant streptavidin V2122; also called scFv-V2122 (anti-CEACAM5)) scFv: QVKLEQSGAEVVKPGASVKLSCKASGFNIKDSYMHWLRQGPGQRLEWIGWIDPENGDTEYAPKFQGKATFTTDTSANTAYLGLSSLRPEDTAVYYCNEGTPTGPYYFDYWGQGTLVTVSSGGGGSGGGGSGGGGSENVLTQSPSSMSVSVGDRVNIACSASSSVPYMHWLQQKPGKSPKLLIYLTSNLASGVPSRFSGSGSGTDYSLTISSVQPEDAATYYCQQRSSYPLTFGGGTKLEIKGGGGSGGGGAEAGITGTWSDQLGDTFIVTAGADGALTGTYENAVGGAESRYVLTGRYDSAPATDGSGTALGWTVAWKNNSKNAHSATTWSGQYVGGADAKINTQWLLTSGTTNANAWKSTLVGHDTFTKVKPSAASHHHHHH |  |  |  |  |  | 
